Molecular target: CN (Homo sapiens, UniProt Q08209)
Test: In vitro CN phosphatase assay with pNPP as substrate
Assay type: biochemical
Conditions: ZnCl2 control at 50 µM
Procedure: CN activity towards the pNPP substrate was measured as described (McAvoy, et al., in Current Protocols in Molecular Biology. (John Wiley & Sons, Inc., 2001), vol. 92, chap. 18, pp. 18). The CN phosphatase assay kit (ENZO Life Sciences, Farmingdale, NY) was used to assess the dephosphorylation of phosphoRII peptide by CN (Mulero et al., 2009, supra.). Potential immunosuppressant CN inhibitors should compete with NFATc for binding, without blocking the general phosphatase activity of CN. As an initial screening test, the phosphatase activity of CN was analyzed using the small molecule p-nitrophenil phosphate (pNPP) as substrate (see Material and Methods). […] The ability of compounds 1-32 in inhibiting CN-NFATc signaling was evaluated in human HEK 293T cells using a luciferase gene reporter assay that includes the NFATc-dependent IL2 promoter (3[…]). After 24 hours of treatment, 50 μM of compounds 6, 9, 17, 19, 23, 25 and 29 inhibit more than 75% NFATc activity, while compounds 1, 2, 4, 8, 10, 14, and 24 inhibit 50-75% NFATc activity (Fig. 2B).

CN phosphatase activity towards pNPP: strongly inhibits enzymatic activity
Structure (SMILES): [Cl-].[Cl-].[Zn+2] [ZnCl2]
